# Results from patent US11696881B2, “Oral care compositions comprising hops beta acids and fluoride ions” (The Procter & Gamble Company, priority 2019, dated 2023).
# Tested on: plaque biofilm grown from pooled human saliva (3-day biofilm)
# Experiment: in vitro plaque glycolysis model (iPGRM): acid production and acid inhibition
# Type: cell-based
# Method: Acid production and acid inhibition were determined with the in vitro plaque glycolysis model (iPGRM). The purpose of this technique is to provide a simple and quick method for determining if compounds have an influence on the metabolic pathways that plaque microorganisms utilize to produce toxins that adversely affect gingival health.
# The in vitro plaque glycolysis model (iPGRM) is a technique in which plaque is grown from human saliva and treated with various agents to determine anti-glycolytic activity of treatments. When bacteria convert sugar into energy with the help of enzymes, acids are formed. These acids demineralize and damage the dental enamel. […]
# A plaque biofilm was grown on glass rods from fresh pooled human saliva and Trypticase Soy Broth (TSB) at 37° C. over […] by dipping glass rods into and out of media in a reciprocating motion. […] The pH of the media solutions was then measured to determine the amount of glycolysis inhibition relative to a negative control.
# On Day 1, new glass rods (5 mm×90 mm) were polished approximately 25 mm from the untapered end on a lathe with silicon carbide paper of 240, 320, 400, and 600 grit used sequentially. […] After polishing, rods were stored until ready to run test. […]
smiles,measurement,setting,value
"[H]/N=C(\N/C(=N/[H])NCCCCCCNC(=N)NC(=N)Nc1ccc(Cl)cc1)Nc1ccc(Cl)cc1 [1% Chlorhexidine, Chlorhexidine]",Acid Production (ΔpH) Mean,"Table 2, 2 min treatment with 1:5 slurry in water",0.30 ΔpH
same,Mean Acid Inhibition (%) Mean,"Table 2, relative to negative control Crest Cavity Protection",80.77%
